Assay results published in US20060229255A1, “Identification of n-alkylglycine trimers for induction of apoptosis” (priority 2003, published 2006).
Read-outs that look alike come from different tables or passages of the source.

Experiments:
Assay type in all cases: cell-based, human
Bcl-xL = assay: Western blot of Bcl-xL phosphorylation; settings: HT29 cells, 3, 6 and 24 h
Procedure: Western blotting. Floating and adherent cells were harvested and pellets were resuspended in RIPA buffer (50 mM Tris/HCl 7.4, 250 mM NaCl, 0,5% Igepal CA630, 5 mM EDTA, 1 mM PMSF, 10 μg/ml leupeptin, 50 mM NaF, 0.1 mM Na3VO4) or Deoxycholate buffer (10 mM phosphate buffer 7.4, […] NaCl, 0.5% Deoxycholate, 1% Igepal, 0.1% SDS, 1 mM PMSF). Protein concentration was determined with BCA Protein Assay Kit (Pierce) for RIPA extracts or Bradford assay (BioRad) for Deoxycholate extracts. Total protein (20-30 μg/lane) were separated by SDS-PAGE, transferred to PVDF membranes (Gellman), and probed with antibodies against Bcl-xL (Transduction); Bax (Santa Cruz); JNK (Santa Cruz); phospho-JNK (Cell Signaling); pRb (Pharmingen); pRb-phospho Ser780 (Cell Signalling); p130 (Santa Cruz); p107 (Santa Cruz); Cdk2 (Santa Cruz); p27^Kip1 (Santa Cruz); p21^Cip1 (Santa Cruz); actin (Sigma); or tubulin (ICN) and developed with ECL system (AmershamPharmacia biotech)
FIG. 6. (A) JNK is activated after N13-13-10C treatment. HT29 cells were treated for 1, 3, 6 and 24 h with N13-13-10C (35 μM), harvested and immunoblotted to assess activation of SAP/JNK MAP kinase. Western blot was first probed with the JNK-phosphor specific antibody, was stripped and reprobed with the pan-JNK antibody and actin to normalize total protein level. […]

T98 g cells = assay: Cell cycle DNA analysis in synchronized cells; settings: for Cells retained in G1: 19 h after serum re-addition, 100 μM
Procedure: Experimentally this finding was substantiated analysing the compounds in a cellular model with synchronized cells. T98 g cells were arrested in G1 phase (82%) by serum starvation in MCDB 105 medium after 72 h. Upon 10% serum re-addition, cells were allowed to re-enter into the cell cycle. More than 50% of the cells were in the S-phase, and only 20% remained in G1 after 19 h of FCS introduction. Addition of N10-13-10C or N13-13-10C to the cultures at the moment of serum addition restrained S-phase entry (FIG. 7. A). Around 40% of the cells were retained in G1. In conclusions both N10-13-10C and N13-13-10C were able to induce a G1 arrest either in asynchronous or in synchronized cell cultures, as determined by cell cycle DNA analysis. In comparison, Olomucine which is a cdk2 inhibitor, retained 80% of the cells in G1. The topoisomerase II inhibitor etoposide treated cells were arrested in S phase of the cell cycle (85% of the cell population).
DNA analysis. Floating and adherent cells treated with the compounds were collected by trypsinization and washed twice with PBS. The cells were permeabilized overnight at −20° C. with ice-cold ethanol 70%. The cells were washed in PBS, adjusted at 0.5×10^6 cells/ml and incubated with 20 μg/ml Propidium Iodide and 2 μl/ml RNase DNase-free for 30 min at 30° C. Cells were maintained overnight at 4° C. and then analysed by flow cytometry. Flow cytometric experiments were carried out using an Epics XL flow cytometer (Coulter Corporation, Hialeah, Fla.). The instrumet was set up with the standard configuration: excitation of the sample was done using an standard 488 nm air-cooled argon-ion laser at 15 mW power. Forward scatter (FSC), side scatter (SSC) and red (620 nm) fluorescence for PI were adquired. Optical alignement was based on optimized signal from […] fluorescent beads (Immunocheck, Epics Division). Time was used as a control of the stability of the instrument. Red fluorescence was projected on a 1024 monoparametrical histogram. Aggregates were excluded gating single cells by their area vs. peak fluorescence signal. DNA analysis (Ploidy analysis) on single fluorescence histograms was done using Multicycle software (Phoenix Flow Systems, San Diego, Calif.).
(§1) FIG. 7. […] (A) T98 g cells were synchronized and reinitiated for 19 h with FCS alone or in combination with N10-13-10C (100 μM), N13-13-10C (100 μM), Olomucine (100 μM), etoposide (5 μM) or Taxol (30 nM). Cell cycle profile was assessed by propidium iodide DNA staining and analyzed by flow cytometry. The fraction of cells with G1, S, G2/M DNA content are shown as % of total cell population. (B. and C.) Synchronized T98 g cells were reinitiated with FCS alone or in combination with serial dilutions of N4-13-10C, N5-13-10C, N10-13-10C, N13-13-10C, Olomucine or etoposide for 19 h and labeled with BrdU during the last 2 h. BrdU incorporation was assessed by ELISA using anti-BrdU antibodies. An arbitrary value of 100% was assigned to the densiometric rate of DNA synthesis by untreated cultures and all other values are depicted relative to that reference. The values are means of three (n=3) replicates.

T98g glioblastoma cells = assay: BrdU incorporation assay (DNA synthesis); settings: synchronized T98 g, 17 h + 2 h BrdU, read-out: IC50 BrdU incorporation (DNA synthesis inhibition)
Procedure: To confirm the G1 arrest of the cell cycle, we analyzed the DNA synthesis by an BrdU incorporation assay. Serial dilutions of the compounds N4-13-10C, N5-13-10C, N10-13-10C, N13-13-10C, etoposide or olomucine were assayed on synchronized T98 g cells as described in FIG. 7. A. Arrested cells were induced to cell cycle re-entry by re-addition of serum alone or with test compounds for 17 h, followed by 2 h in combination with 10 μM BrdU.
BrdU assay. T98g glioblastoma cells at 5000 cells/well in microtiter plates were arrested in G1-phase for 72 h by serum deprivation in MCDB 105 medium. By serum (10%) readdition, cells were treated with serial dilutions of the compounds for 17 h, and followed in combination 10 μM BrdU for […]. BrdU incorporation, i.e. DNA synthesis, was quantified with Cell Proliferation ELISA system, vs. 2 (AmershamPharmacia biotech) as described by the manufacturer.
as §1

## CC(=O)O[C@H]1C(=O)[C@@]2(C)[C@H]([C@H](OC(=O)c3ccccc3)[C@]3(O)C[C@H](OC(=O)[C@H](O)[C@@H](NC(=O)c4ccccc4)c4ccccc4)C(C)=C1C3(C)C)[C@]1(OC(C)=O)CO[C@@H]1C[C@@H]2O [Taxol, reference compound]
Bcl-xL
  Bcl-xL phosphorylation (slower migrating band): phosphorylated bcl-xL
T98 g cells; 19 h of treatment, Taxol 30 nM
  Effect on cell cycle profile: does not effect cell cycle profile

## COc1cc([C@@H]2c3cc4c(cc3[C@@H](O[C@@H]3O[C@@H]5CO[C@@H](C)O[C@H]5[C@H](O)[C@H]3O)[C@H]3COC(=O)[C@H]23)OCO4)cc(OC)c1O [etoposide, reference compound]
T98g glioblastoma cells; Homo sapiens, T98G
  IC50: 200 µM
T98 g cells; 19 h, etoposide 5 μM
  Cells arrested in S phase: 85%

## Cn1cnc2c(NCc3ccccc3)nc(NCCO)nc21 [Olomucine]
T98g glioblastoma cells
  IC50: 50 µM
T98 g cells
  Cells retained in G1: 80%
T98 g cells; listed as olomucine
  Cells retained in G1: 82%
